Experimental data from patent US20090054358A1, “Flt3 inhibitors for immune suppression” (THE JOHN HOPKINS UNIVERSITY, priority 2004, published 2009).
Entries after “also recorded” stand apart in the source; their conditions may differ.

Tests used:
[1] = tested on: Dendritic cells (CD11c+ cells); experiment: Apoptosis, survival of mature bone-marrow DCs treated with FLT3 inhibitors (FACS, Annexin V); type: cell-based, mice; details: for survival and stimulation of the DCs: mature DCs, dose-response analysis, in the presence of GM-CSF+/−FL; for apoptosis in DCs (Annexin V binding): 24 hours
Protocol: The survival and function of the DCs was investigated when exposed to FLT3 inhibitors. Mature DCs were incubated in a dose-response analysis to CEP 701, 5214 and AG 1296 in the presence of GM-CSF+/−FL.
Bone marrow (BM) was flushed from the extremities of mice with PBS, red blood cells (RBCs) were lysed in hypotonic buffer, and after washing the cells were plated at 2×10^6 cells/ml in GM-CSF (1000 U/ml) or GM+FL (100 ng/ml) containing medium. On days 2, 4, and 6, non-adherent cells were removed and adherent cells were washed prior to the addition of fresh medium. On day 8, non-adherent mature DCs were harvested, and replated in the absence or presence of CEP-701 at 5 or 50 nM. After 24 hours, cells were then stained for FACS analysis. CD11c+ cells were assessed for MHC class II expression and Annexin V binding (FIG. 1A).
After washing, the cells were plated at 2×10^6 cells/ml in GM-CSF (1000 U/ml)+FL (100 ng/ml) containing medium. On days 2, 4, and 6, non-adherent cells were removed and adherent cells were washed prior to the addition of fresh medium. On day 8, non-adherent mature DCs were harvested, and replated in the absence or presence of AG 1296. After 24 hours, cells were stained for FACS analysis. Dendritic cells (CD11c+ cells) were assessed for CD86 expression and Annexin V binding (FIG. 1B). […] For DCs to activate T cells, they present antigen bound to MHC molecules and express co-stimulatory proteins on their surfaces.

[2] = tested on: axons; experiment: Degenerating axonal fibers in medial dorsal column of MOG-immunized mice; type: in vivo; details: cervical level 5, 210 days post disease induction, versus vehicle
From the text: In reference to FIG. 10, intact brain and spinal cords were removed from mice that were immunized with MOG peptide, and either treated with the vehicle control or CEP-701 after symptom onset. Following treatment and scoring, the mice were kept for an additional 2 months, then sacrificed and the CNS prepared for evaluation by preservation in formalin. Thin plastic sections ([…]) were generated from cervical level 5, followed by staining in Toluidine blue and axons were visualized. Total axon numbers and actively degenerating fibers in a predefined area of the medial dorsal column were enumerated by an experienced examiner in a blinded fashion. Plots show the number of degenerating axonal fibers in the defined field area for the sections of CEP-701 treated mice compared to vehicle control mice at 210 days post disease induction.

[3] = Established experimental autoimmune encephalomyelitis (EAE), MOG 35-55; type: in vivo, C57BL/6 mice; details: 20 mg/kg, started within one day of initial symptoms, scored daily, blinded
[4] = tested on: BALB/c splenocytes; experiment: Standard mixed lymphocyte reaction (MLR); type: cell-based, mice
Protocol: (§1) FLT3 inhibition decreases DC-based proliferation of T cells. For these experiments, DCs were generated as above from BALBc mice. The cells were left untreated or were treated with CEP701 and then plated with C57BL/6 splenocytes at the ratios shown. After 3 days, ^3H was added, and the proliferation determined. […] In FIG. 2b, BALB/c splenocytes were substituted for DCs, in order to test the inhibition of CEP701 on a standard mixed lymphocyte reaction (MLR). […] To determine whether T cell stimulatory response would be inhibited as a result of exposure to AG1296, two different T cell proliferative assays were conducted. […] In this standard mixed lymphocyte reaction, equal numbers of stimulator and responder cells (10^6 of each) were mixed in a 96 well plate, incubated for 4 days, pulsed with 3H-thymidine, and proliferation was determined by analyzing incorporation of tritium. DC-stimulated proliferation was also determined by incubating BM derived DCs (day 8, as above) at a ratio of 1:10 with responder allogeneic splenocytes, in the presence (10 μm) or absence of AG1296.

[5] = tested on: T cells; experiment: DC-stimulated proliferation of T cells (3H incorporation); type: cell-based, mice
Protocol: as §1

[6] = tested on: CD11c and NK cell populations; experiment: Immune cell populations in spleens and lymph nodes of treated mice (FACS); type: in vivo, BALB/c mice; details: 20 mg/kg twice a day for 5 days
Protocol: BALB/c mice were treated with 20 mg/kg of CEP701 or vehicle twice a day for 5 days, and then were analyzed for their immune populations. Spleens and lymph nodes were harvested and collagenase digested to release DCs from the stroma. Cells were then washed and analyzed by FACS for the presence of T (CD3+/DX5−), NK (CD3−,DX5+), B (B220+, CD11c−) or DCs (CD11c+).

[7] = tested on: T cells; experiment: Direct stimulation of T cells on anti-CD3 plates with anti-CD28 antibody; type: cell-based; details: anti-CD3 coated plates, 2 days, 3H
Protocol: T cells were then stimulated with anti-CD28 antibody. After 2 days, 3H was added, and the proliferation determined.

[8] = tested on: transgenic T cells that are specific for HA; experiment: In vivo autoreactive T cell expansion in HA transgenic (137) mice given 6.5 T cells; details: 137 mice treated 3 days prior to and 5 days after T cell transfer
[9] = tested on: co-stimulatory molecules B7.2 (CD 86) and B7-DC; experiment: Expression of co-stimulatory molecules B7.2 (CD 86) and B7-DC on DCs; type: cell-based, Murine; details: AG1296 at 0, 1, or 10 μM
Protocol: FIG. 6 depicts the treatment of DCs with AG1296 at either 0, 1, or 10 μM and then analyzed for the expression of co-stimulatory molecules B7.2 (CD 86) and B7-DC.
(§2) To investigate the role of FL/FLT3 stimulation in regulating costimulatory protein expression by DC, […] or GM-CSF plus FL, were analyzed by Northern blotting for expression of B7-DC, a member of the B7 family of co-stimulatory molecules. […] The inhibition of FLT3 signaling led to a down-regulation of B7-DC as well as B7.2 (CD 86) in these DCs (FIG. 6).

[10] = tested on: B7-DC; experiment: Northern blot for hB7-DC in human bone marrow cells treated with cytokines; type: cell-based; details: FL added to GM-CSF
Protocol: as §2

In the case of CC(C)OCc1ccc2c(c1)c1c3c(c4c(c1n2CCCO)Cc1ccccc1-4)C(=O)NC3 [CEP-5214], the “apoptosis in DCs” value ([1]; CEP-5214, data not shown) is reported as “confirmed” and the “survival and stimulation of the DCs” value [1] is reported as “decrease in survival and stimulation”.

With C[C@]12O[C@H](C[C@]1(O)CO)n1c3ccccc3c3c4c(c5c6ccccc6n2c5c31)CNC4=O [CEP-701] the “number of degenerating axonal fibers (neurodegeneration)” value [2] was “decrease in neurodegeneration”, the “apoptosis in DCs (Annexin V binding)” value ([1]; CEP-701 at 5 or 50 nM, DCs generated in GM-CSF alone or GM-CSF and FL) was “induced apoptosis; also recorded: induction of apoptosis in a significant fraction of the DCs” and the “survival and stimulation of the DCs” value [1] was “decrease in survival and stimulation”. For the same molecule, the “EAE clinical score (0-5)” value [3] was “lower scores”, the “mixed lymphocyte reaction (MLR) response” value ([4]; BALB/c splenocytes substituted for DCs, CEP701) was “inhibited” and the “DC-based proliferation of T cells” value ([5]; BALBc DCs treated with CEP701, plated with C57BL/6 splenocytes, 3 days, 3H) was “robust effect on decreasing proliferation of T cells”. The “B (B220+, CD11c−) cell population” value [6] was “no significant change”, the “DC (CD11c+) population” value [6] was “decreases” and the “NK (CD3−,DX5+) population” value [6] was “decreases”. The “T (CD3+/DX5−) cell population” value [6] was “no significant change”, the “proliferation of directly stimulated T cells” value [7] was “does not inhibit their proliferation” and the “autoreactive T cell expansion, as measured by thy 1.1” value ([8]; listed as CEP 701) was “decreases an in vivo autoreactive immune response”. The “autoreactive T cell expansion, as measured by thy 1.1” value ([8]; listed as CEP701) was “decrease in the autoreactive T cell expansion”.

With COc1cc2ncc(-c3ccccc3)nc2cc1OC [AG1296] the “expression of co-stimulatory molecule B7-DC on DCs” value [9] was “down regulated”, the “expression of co-stimulatory molecule B7.2 (CD 86) on DCs” value [9] was “down regulated” and the “apoptosis in DCs (Annexin V binding)” value ([1]; AG 1296 at 0, 1, and 10 μM, DCs generated in GM-CSF + FL) was “confirmed; also recorded: induced apoptosis in DCs in a dose-dependent fashion”. For the same molecule, the “apoptosis in DCs (Annexin V binding)” value ([1]; AG 1296 at 0, 1, and 10 μM, DCs generated in GM-CSF + FL, listed as AG 1296) was “induction of apoptosis in a significant fraction of the DCs”, the “survival and stimulation of the DCs” value [1] was “decrease in survival and stimulation” and the “mixed lymphocyte reaction proliferation” value ([4]; allogeneic spleen cells, 10^6 each, 4 days, 3H-thymidine, AG1296 10 μm) was “inhibition”. For the same molecule, the “T cell proliferation induced by DCs” value ([5]; BM derived DCs 1:10 with allogeneic splenocytes, AG1296 10 μm) was “decrease in T cell proliferation; also recorded: inhibited”.

B1: FL: FLT3 Ligand (FL), ligand that stimulates the FLT3 receptor (protein, UniProt P49771 27-235, looked up)
Fms-related tyrosine kinase 3 …: TQDCSFQHSPISSDFAVKIRELSDYLLQDYPVTVASNLQDEELCGGLWRLVLAQRWMERLKTVAGSKMQGLLERVNTEIHFVTKCAFQPPPSCLRFVQTNISRLLQETSEQLVALKPWITRQNFSRCLELQCQPDSSTLPPPWSPRPLEATAPTAPQPPLLLLLLLPVGLLLLAAAWCLHWQRTRRRTPRPGEQVPPVPSPQDLLLVEH
With B1 the “B7-DC expression (Northern blot)” value [10] was “greatly up-regulates”.
